From US9085576B2 (AMGEN INC., priority 2013, dated 2015)
Structures can show the parent of a compound that is named as a salt. Where two headings read alike, the source gives them in different places.

Experiments:
[1] = biological target: Cathepsin D (Cat D) (Homo sapiens (Human), UniProt P07339); test: In vitro enzymatic Cathepsin D (Cat D) FRET assay; type: biochemical
[2] = biological target: Beta Secretase enzyme (BACE) (Homo sapiens (Human), UniProt P56817); test: In vitro enzymatic BACE FRET assay; type: biochemical
[3] = read-out: BACE1 Enzyme assay IC50

Chain of Beta Secretase enzyme (BACE) (P56817 46-501): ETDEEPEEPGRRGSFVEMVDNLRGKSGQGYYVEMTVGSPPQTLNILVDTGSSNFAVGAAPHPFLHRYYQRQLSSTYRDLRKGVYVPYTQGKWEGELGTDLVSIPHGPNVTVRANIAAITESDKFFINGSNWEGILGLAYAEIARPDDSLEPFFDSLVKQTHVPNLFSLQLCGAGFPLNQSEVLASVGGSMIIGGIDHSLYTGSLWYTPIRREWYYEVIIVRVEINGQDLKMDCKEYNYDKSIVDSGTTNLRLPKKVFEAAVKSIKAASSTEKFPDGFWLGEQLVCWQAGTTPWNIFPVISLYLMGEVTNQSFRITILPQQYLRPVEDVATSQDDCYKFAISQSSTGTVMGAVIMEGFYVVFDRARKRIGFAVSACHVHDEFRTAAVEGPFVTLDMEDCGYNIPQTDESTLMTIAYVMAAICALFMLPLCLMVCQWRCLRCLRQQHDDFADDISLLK
Chain of Cathepsin D (Cat D) (P07339 65-412, species assumed): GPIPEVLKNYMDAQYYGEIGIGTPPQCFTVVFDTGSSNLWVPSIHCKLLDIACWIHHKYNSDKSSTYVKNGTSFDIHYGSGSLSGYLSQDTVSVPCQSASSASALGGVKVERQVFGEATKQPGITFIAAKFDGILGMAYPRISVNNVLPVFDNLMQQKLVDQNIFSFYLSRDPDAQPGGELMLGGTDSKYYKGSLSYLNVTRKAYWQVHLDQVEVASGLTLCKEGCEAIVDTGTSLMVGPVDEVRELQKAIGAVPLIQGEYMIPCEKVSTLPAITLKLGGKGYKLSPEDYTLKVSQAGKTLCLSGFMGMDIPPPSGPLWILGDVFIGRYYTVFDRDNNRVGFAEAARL

SMILES | IC50 ([1]; read-out: CatD IC50) [µM] | IC50 [2, 3] [µM] | IC50 [1] [µM] | IC50 [2] [µM]
CC#CCOc1cnc(C(=O)Nc2ccc(Cl)c([C@]3(C(F)F)N=C(N)O[C@H]4C[C@H]43)c2)cn1 [Example 216, N-(3-((1S,5R,6S)-3-amino-5-(difluoromethyl)-2-oxa-4-azabicyclo[4.1.0]hept-3-en-5-yl)-4-chlorophenyl)-5-(but-2-yn-1-yloxy)pyrazine-2-carboxamide] | 500 | 0.838 | – | –
NC1=N[C@@](c2cccc(NC(=O)c3ccc(Cl)cn3)c2)(C(F)F)[C@H]2C[C@H]2O1 [Example 265, N-(3-((1R,5S,6R)-3-amino-5-(difluoromethyl)-2-oxa-4-azabicyclo[4.1.0]hept-3-en-5-yl)phenyl)-5-chloropicolinamide] | 397 | 0.265 | – | –
Cc1cc(C#N)cnc1C(=O)Nc1cc(F)c(Cl)c([C@]2(CF)N=C(N)O[C@H]3C[C@H]32)c1 [Example 139, N-(3-((1 S,5R,6S)-3-amino-5-(fluoromethyl)-2-oxa-4-azabicyclo[4.1.0]hept-3-en-5-yl)-4-chloro-5-fluorophenyl)-5-cyano-3-methylpicolinamide] | 646 | 14.2 | – | –
CC#Cc1cncc(-c2cc([C@]3(CF)N=C(N)O[C@H]4C[C@H]43)c(F)cc2CO)c1 [Example 432, (4-(((1S,R),(5R,S),(6S,R))-3-amino-5-(fluoromethyl)-2-oxa-4-azabicyclo[4.1.0]hept-3-en-5-yl)-5-fluoro-2-(5-(prop-1-yn-1-yl)pyridin-3-yl)phenyl)methanol] | 178 | 33.1 | – | –
NC1=N[C@@](c2cc(N[C@H]3CCc4cc(Br)cnc43)ccc2F)(C(F)F)[C@H]2C[C@H]2O1 (single isomer, unassigned) [Example 381, (1R,5S,6R)-5-(5-(((S)-3-bromo-6,7-dihydro-5H-cyclopenta[b]pyridin-7-yl)amino)-2-fluorophenyl)-5-(difluoromethyl)-2-oxa-4-azabicyclo[4.1.0]hept-3-en-3-amine or (1R,5S,6R)-5-(5-(((R)-3-bromo-6,7-dihydro-5H-cyclopenta[b]pyridin-7-yl)amino)-2-fluorophenyl)-5-(difluoromethyl)-2-oxa-4-azabicyclo[4.1.0]hept-3-en-3-amine] | 83.3 | 3.45 | – | –
NC1=N[C@@](c2cc(N[C@H](c3ccc(Cl)cn3)C(F)(F)F)ccc2F)(C(F)F)[C@H]2C[C@H]2O1 (mixture of isomers) [Example 422, (1R,5S,6R)-5-(5-(((R)-1-(5-chloropyridin-2-yl)-2,2,2-trifluoroethyl)amino)-2-fluorophenyl)-5-(difluoromethyl)-2-oxa-4-azabicyclo[4.1.0]hept-3-en-3-amine and (1R,5S,6R)-5-(5-(((S)-1-(5-chloropyridin-2-yl)-2,2,2-trifluoroethyl)amino-2-fluorophenyl)-5-(difluoromethyl)-2-oxa-4-azabicyclo[4.1.0]hept-3-en-3-amine] | 68.2 | 5.25 | – | –
CC#CCOc1cnc(C(=O)Nc2ccc(Cl)c([C@]3(C(F)F)N=C(N)O[C@H]4C[C@H]43)c2)cn1 (racemic) [Example 210, N-(3-([1(R,S),5(S,R),6(R,S)]-3-amino-5-(difluoromethyl)-2-oxa-4-azabicyclo[4.1.0]hept-3-en-5-yl)-4-chlorophenyl)-5-(but-2-yn-1-yloxy)pyrazine-2-carboxamide] | 569 | 0.0039 | – | –
C#CCOc1cnc(C(=O)Nc2cc(F)c(F)c([C@@]3(C(F)F)N=C(N)O[C@@H]4C[C@@H]43)c2)cn1 [Example 115, N-(3-((1R,5S,6R)-3-amino-5-(difluoromethyl)-2-oxa-4-azabicyclo[4.1.0]hept-3-en-5-yl)-4,5-difluorophenyl)-5-(prop-2-yn-1-yloxy)pyrazine-2-carboxamide] | 42.5 | 0.0021 | – | –
NC1=N[C@@](c2cc(N[C@@H]3CCc4cc(Br)ccc43)ccc2F)(C(F)F)[C@H]2C[C@H]2O1.NC1=N[C@@](c2cc(N[C@H]3CCc4cc(Br)ccc43)ccc2F)(C(F)F)[C@H]2C[C@H]2O1 (mixture of isomers) [Example 384, (1R,5S,6R)-5-(5-(((R)-5-bromo-2,3-dihydro-1H-inden-1-yl)amino)-2-fluorophenyl)-5-(difluoromethyl)-2-oxa-4-azabicyclo[4.1.0]hept-3-en-3-amine and (1R,5S,6R)-5-(5-(((S)-5-bromo-2,3-dihydro-1H-inden-1-yl)amino)-2-fluorophenyl)-5-(difluoromethyl)-2-oxa-4-azabicyclo[4.1.0]hept-3-en-3-amine] | 82.5 | 0.315 | – | –
NC1=N[C@@](c2cccc(NC(=O)c3ccc(Cl)cn3)c2)(C(F)F)[C@H]2C[C@H]2O1 [Example 263, N-(3-([(1R,S),(5S,R),(6R,S)]-3-amino-5-(difluoromethyl)-2-oxa-4-azabicyclo[4.1.0]hept-3-en-5-yl)phenyl)-5-chloropicolinamide] | 1060 | 0.525 | – | –
C#CCOc1cnc(C(=O)Nc2cc(F)c(F)c([C@@]3(C(F)F)N=C(N)O[C@@H]4C[C@@H]43)c2)cn1 [Example 111, N-(3-((1R,5S,6R)-3-amino-5-(difluoromethyl)-2-oxa-4-azabicyclo[4.1.0]hept-3-en-5-yl)-4,5-difluorophenyl)-5-(prop-2-yn-1-yloxy)pyrazine-2-carboxamide] | 1000 | 6.5 | – | –
NC1=N[C@](c2cc(NC(=O)c3nn(C(F)F)cc3Cl)ccc2Cl)(C(F)F)[C@@H]2C[C@@H]2O1 [Example 225, N-(3-((1S,5R,6S)-3-amino-5-(difluoromethyl)-2-oxa-4-azabicyclo[4.1.0]hept-3-en-5-yl)-4-chlorophenyl)-4-chloro-1-(difluoromethyl)-1H-pyrazole-3-carboxamide] | 1340 | 8.27 | – | –
NC1=N[C@](c2cc(NC(=O)c3nn(C(F)F)cc3Cl)ccc2Cl)(C(F)F)[C@@H]2C[C@@H]2O1 (racemic) [Example 220, N-(3-((1(R,S),5(S,R),6(R,S))-3-amino-5-(difluoromethyl)-2-oxa-4-azabicyclo[4.1.0]hept-3-en-5-yl)-4-chlorophenyl)-4-chloro-1-(difluoromethyl)-1H-pyrazole-3-carboxamide] | 691 | 0.0188 | – | –
C#CCOc1cnc(C(=O)Nc2ccc(Cl)c([C@]3(C(F)F)N=C(N)O[C@H]4C[C@H]43)c2)cn1 [Example 222, N-(3-((1S,5R,6S)-3-amino-5-(difluoromethyl)-2-oxa-4-azabicyclo[4.1.0]hept-3-en-5-yl)-4-chlorophenyl)-5-(prop-2-yn-1-yloxy)pyrazine-2-carboxamide] | 493 | 0.701 | – | –
NC1=N[C@@](c2cc(Nc3coc4cc(Cl)cnc34)ccc2F)(C(F)F)[C@H]2C[C@H]2O1 [Example 385, N-(3-((1R,5S,6R)-3-amino-5-(difluoromethyl)-2-oxa-4-azabicyclo[4.1.0]hept-3-en-5-yl)-4-fluorophenyl)-6-chlorofuro[3,2-b]pyridin-3-amine] | – | – | 153 | 0.253
NC1=N[C@@](c2cc(N[C@H]3CCCc4cc(Br)cnc43)ccc2F)(C(F)F)[C@H]2C[C@H]2O1 (mixture of isomers) [Example 382, (1R,5S,6R)-5-(5-(((R)-3-bromo-5,6,7,8-tetrahydroquinolin-8-yl)amino)-2-fluorophenyl)-5-(difluoromethyl)-2-oxa-4-azabicyclo[4.1.0]hept-3-en-3-amine and (1R,5S,6R)-5-(5-(((S)-3-bromo-5,6,7,8-tetrahydroquinolin-8-yl)amino)-2-fluorophenyl)-5-(difluoromethyl)-2-oxa-4-azabicyclo[4.1.0]hept-3-en-3-amine] | 263 | 3.07 | – | –

More lines, main results first:

IC50 ([1]; read-out: CatD IC50) [µM] | IC50 [2, 3] [µM] | SMILES | IC50 [1] [µM] | IC50 [2] [µM]
490 | 0.473 | CNc1cnc(C(=O)Nc2ccc(F)c([C@@]3(C(F)F)N=C(N)O[C@@H]4C[C@@H]43)c2)nc1 [Example 439, N-(3-((1R,5S,6R)-3-amino-5-(difluoromethyl)-2-oxa-4-azabicyclo[4.1.0]hept-3-en-5-yl)-4-fluorophenyl)-5-(methylamino)pyrimidine-2-carboxamide dihydrochloride] | – | –
1290 | > 40 | C[C@@]1(c2nc(NC(=O)c3ccc(C#N)cn3)ccc2F)N=C(N)O[C@H]2C[C@H]21 [Example 325, N-(6-((1S,5R,6S)-3-amino-5-methyl-2-oxa-4-azabicyclo[4.1.0]hept-3-en-5-yl)-5-fluoropyridin-2-yl)-5-cyanopicolinamide] | – | –
918 | 0.138 | NC1=N[C@@](CF)(c2cc(NC(=O)c3ccc(Cl)cn3)ccc2Cl)[C@@H]2CC2O1 (stereo partly drawn) [Example 276, N-(3-(((1R,S), (5S,R), (6R,S))-3-amino-5-(fluoromethyl)-2-oxa-4-azabicyclo[4.1.0]hept-3-en-5-yl)-4-chlorophenyl)-5-chloropicolinamide] | – | –
240 | 0.613 | NC1=N[C@](c2cc(-c3nc4ccc(Cl)cc4o3)ccc2F)(C(F)F)[C@@H]2C[C@@H]2O1 [Example 425, (1S,5R,6S)-5-(5-(6-chlorobenzo[d]oxazol-2-yl)-2-fluorophenyl)-5-(difluoromethyl)-2-oxa-4-azabicyclo[4.1.0]hept-3-en-3-amine] | – | –
> 400 | 8.11 | COc1cnc2c(Nc3ccc(F)c([C@]4(C)N=C(N)O[C@H]5C[C@H]54)c3)nccc2c1 [Example 339] | – | –
196 | 1.24 | NC1=N[C@@](c2cc(-c3nc4ccc(Cl)cc4o3)ccc2F)(C(F)F)[C@H]2C[C@H]2O1 [Example 426, (1R,5S,6R)-5-(5-(6-chlorobenzo[d]oxazol-2-yl)-2-fluorophenyl)-5-(difluoromethyl)-2-oxa-4-azabicyclo[4.1.0]hept-3-en-3-amine] | – | –
592 | 0.396 | NC1=N[C@](CF)(c2cccc(NC(=O)c3ccc(Cl)cn3)c2)[C@H]2C[C@H]2O1 (racemic) [Example 423, N-(3-(((1R,S),(5S,R),(6R,S))-3-amino-5-(fluoromethyl)-2-oxa-4-azabicyclo[4.1.0]hept-3-en-5-yl)phenyl)-5-chloropicolinamide] | – | –
> 400 | 14.1 | C[C@@]1(c2cc(NC(=O)c3ccc(Cl)cn3)cnc2F)N=C(N)O[C@H]2C[C@H]21 [Example 335, N-(5-((1S,5R,6S)-3-amino-5-methyl-2-oxa-4-azabicyclo[4.1.0]hept-3-en-5-yl)-6-fluoropyridin-3-yl)-5-chloropicolinamide] | – | –
